Experimental data as given in US10538561B2, “Peptide for treating inflammatory diseases” (priority 2015, dated 2020).
Where a name gives a salt, the structure may show the parent alone. Marks after values point to notes of the source that are not given here.

Columns and labels:
[1] = test system: TNF-α; test: LPS stimulated TNF-α secretion in RAW264.7; format: cell-based, Mouse; details: RAW264.7 + LPS
Method: (§1) Effect on pro-inflammatory cytokines against LPS stimulation: TNF-α; IL-6; IL-1-β: Cell lines: Murine macrophage cell line (RAW264.7); test item: IS181; experimental steps: pretreatment of cells with TI for 2 hours; stimulation with LPS (100 ng/ml) for 24 hours; supernatant collection for cytokine analysis; concentration range: o.1 μg/ml-500 μg/ml (duplicate wells); Cytokines: TNF-α; IL-6; IL-1-β; Method of estimating cytokines: ELISA; positive control: dexamethasone.
(§2) Cell line: RAW264.7 (Mouse macrophages); TI treatment regimen: Pretreatment for 2 h; TI Concentration range: 0.1 μg/ml-500 μg/ml (duplicate wells); LPS stimulation: 100 ng/ml; Time point for supernatants collection: 24 h; Method of estimation: ELISA; Positive control: Dexamethasone

[2] = test system: IL-6; test: LPS+PMA stimulated IL-6 secretion in HaCaT; format: cell-based, Human
Method: (§3) Effect on pro-inflammatory cytokines against TNF-α/LPS+PMA stimulation: TNF-α; IFN-γ; TARC; TSLP; IL-6; IL-8: Cell lines: Human keratinocytes (HaCaT); test item (TI); IS181; experimental steps: pre-treatment of cells with TI for 2 hours; stimulation with TNF-α: 20 ng/ml; stimulation with LPS+PMA-10 μg/ml LPS+40 ng/ml PMA; supernatant collection for cytokine analysis after 24 hours; concentration range: 0.1 μg/ml-100 μg/ml (duplicate wells); cytokines: TNF-α; IFN-γ; TARC; TSLP; IL-6; IL-8. Method of estimating cytokines: ELISA; positive control: dexamethasone.
(§4) Cell line: HaCaT (Human Keratinocytes); TI Treatment regimen: Pretreatment for 2 h; TI Concentration range: 0.1 μg/ml-100 μg/ml (duplicate wells); TNF-α stimulation: 20 ng/ml; LPS+PMA stimulation: 10 μg/ml LPS+40 ng/ml PMA; Time point for supernatants collection: 24 h; Method of estimation: ELISA; Positive control: Dexamethasone

[3] = test system: IL-8; test: LPS+PMA stimulated IL-8 secretion in HaCaT; format: cell-based, Human; details: HaCaT + LPS + PMA
Method: as §3, §4

[4] = test system: IFN-γ; test: TNF-α stimulated IFN-γ secretion in HaCaT; format: cell-based, Human; details: HaCaT + TNF-α
Method: as §3, §4

[5] = test system: TSLP; test: LPS+PMA stimulated TSLP secretion in HaCaT; format: cell-based, Human; details: HaCaT + LPS + PMA
Method: as §3, §4

[6] = test system: TNF-α; test: TNF-α level in TNF-α stimulated HaCaT; format: cell-based, Human
Method: as §3, §4

[7] = test system: TARC; test: TNF-α stimulated TARC secretion in HaCaT; format: cell-based, Human; details: HaCaT + TNF-α
Method: as §3, §4

[8] = test system: IL-6; test: LPS stimulated IL-6 secretion in RAW264.7; format: cell-based, Mouse; details: RAW264.7 + LPS
Method: as §1, §2

[9] = test system: IL-1-β; test: LPS stimulated IL-1-β secretion in RAW264.7; format: cell-based, Mouse; details: RAW264.7 + LPS
Method: as §1, §2

[10] = test system: Human Keratinocytes (HaCaT); test: Cell viability (MTT assay) in HaCaT; format: cell-based; details: human
Method: (§5) Cell Lines/Cells: Human Keratinocytes (HaCaT); Human melanoma (SK-MEL-28); Human PBMCs. Test Item: IS181 Treatment regimen: Single addition—24 h, ^#Multiple additions (3)−72 h; Concentration range: 1 ng/ml-2 mg/ml (triplicate wells); Sera Condition: […] Method of estimation: MTT assay. […] Positive control: Triton-X-100, Doxorubicin Hydrochloride.

[11] = test system: HaCaT (Human keratinocyte); test: LDH enzyme release assay; format: cell-based
Method: (§6) For testing Apoptosis the Human Keratinocytes (HaCaT) cell line has been employed. The growth conditions are DMEM containing 1% FBS. […] Test concentration range is IS181 is tested at the highest (Qualitative analysis) effective concentrations selected on the basis of Quantitative JC-1 assay. The method of estimation is Mitochondrial membrane depolarization by JC-1 assay (Early apoptosis), LDH enzyme release (Necrosis). Treatment regimen & time points are JC-1 assay—Single addition, 20 h; LDH assay—Single addition, 24 h; Positive control: Triton-X-100, Doxorubicin-hydrochloride
End-point: Percentage increase in LDH activity in treated cells with respect to untreated.

[12] = test system: Human melanoma (SK-MEL-28); test: Cell viability (MTT assay) in SK-MEL-28; format: cell-based; details: human
Method: as §5

[13] = test system: HaCaT (Human keratinocyte) cell line; test: Mitochondrial membrane potential by JC-1 assay; format: cell-based
Method: as §6
Quantitative effect on Δψm (Red fluorescence/Green fluorescence) in HaCaT cells post 20 hours of treatment. […] Evaluation (Qualitative and quantitative) of differential JC-1 staining in treated cells after 20 h on incubation with the test peptides.

C[C@@H]1C[C@H]2[C@@H]3CCC4=CC(=O)C=C[C@]4(C)[C@@]3(F)[C@@H](O)C[C@]2(C)[C@@]1(O)C(=O)CO [Dexamethasone, reference compound]
TNF-α % decrease with respect to LPS ([1]; 0.5 μg /ml): 54.1%
TNF-α Conc (pg/ml) ([1]; 0.5 μg /ml): 451.7*** pg/ml
TNF-α % decrease with respect to LPS ([1]; 1 μg /ml): 70.4%
TNF-α Conc (pg/ml) ([1]; 1 μg /ml): 291.8*** pg/ml
TNF-α % decrease with respect to LPS ([1]; 10 μg/ml): 71.2%
TNF-α Conc (pg/ml) ([1]; 10 μg/ml): 283.1*** pg/ml
IL-6 % decrease with respect to LPS + PMA ([2]; 1 μM): 100.0%
IL-6 Conc (pg/ml) ([2]; 1 μM): 0.0*** pg/ml
IL-6 % decrease with respect to LPS + PMA ([2]; 10 μM): 94.8%
IL-6 Conc (pg/ml) ([2]; 10 μM): 0.8*** pg/ml
IL-6 % decrease with respect to LPS + PMA ([2]; 25 μM): 84.2%
IL-6 Conc (pg/ml) ([2]; 25 μM): 2.4*** pg/ml
IL-8 % decrease with respect to LPS + PMA ([3]; 1 μM): 65.1%
IL-8 Conc (pg/ml) ([3]; 1 μM): 136.9*** pg/ml
IL-8 % decrease with respect to LPS + PMA ([3]; 10 μM): 72.6%
IL-8 Conc (pg/ml) ([3]; 10 μM): 107.4*** pg/ml
IL-8 % decrease with respect to LPS + PMA ([3]; 25 μM): 67.9%
IL-8 Conc (pg/ml) ([3]; 25 μM): 125.7*** pg/ml
IFN-γ % decrease with respect to TNF-α ([4]; 1 μM): 34.5%
IFN-γ Conc (pg/ml) ([4]; 1 μM): 31.2*** pg/ml
IFN-γ % decrease with respect to TNF-α ([4]; 10 μM): 25.4%
IFN-γ Conc (pg/ml) ([4]; 10 μM): 35.5** pg/ml
IFN-γ % decrease with respect to TNF-α ([4]; 25 μM): 31.2%
IFN-γ Conc (pg/ml) ([4]; 25 μM): 32.8** pg/ml
TSLP % decrease with respect to LPS + PMA ([5]; 1 μM): 46.4%
TSLP Conc (pg/ml) ([5]; 1 μM): 66.6** pg/ml
TSLP % decrease with respect to LPS + PMA ([5]; 10 μM): 41.9%
TSLP Conc (pg/ml) ([5]; 10 μM): 72.1** pg/ml
TSLP % decrease with respect to LPS + PMA ([5]; 25 μM): 44.7%
TSLP Conc (pg/ml) ([5]; 25 μM): 68.7** pg/ml
TNF-α % decrease with respect to TNF-α ([6]; 1 μM): 17.6%
TNF-α Conc ([6]; 1 μM): 17423.9 pg/mL
TNF-α % decrease with respect to TNF-α ([6]; 10 μM): 31.2%
TNF-α Conc ([6]; 10 μM): 14536.0 pg/mL
TNF-α % decrease with respect to TNF-α ([6]; 25 μM): 4.7%
TNF-α Conc ([6]; 25 μM): 20138.0 pg/mL
TARC % decrease with respect to TNF-α ([7]; 1 μM): 13.2%
TARC Conc ([7]; 1 μM): 52.5 pg/mL
TARC % decrease with respect to TNF-α ([7]; 10 μM): 13.5%
TARC Conc ([7]; 10 μM): 52.3 pg/mL
TARC % decrease with respect to TNF-α ([7]; 25 μM): 13.5%
TARC Conc ([7]; 25 μM): 52.3 pg/mL
IL-6 % decrease with respect to LPS ([8]; 0.5 μg /ml): 45.9%
IL-6 Conc (pg/ml) ([8]; 0.5 μg /ml): 567.6** pg/ml
IL-6 % decrease with respect to LPS ([8]; 1 μg /ml): 61.3%
IL-6 Conc (pg/ml) ([8]; 1 μg /ml): 405.9*** pg/ml
IL-6 % decrease with respect to LPS ([8]; 10 μg/ml): 72.3%
IL-6 Conc (pg/ml) ([8]; 10 μg/ml): 291.2*** pg/ml
IL-1-β % decrease with respect to LPS ([9]; 0.5 μg /ml): 53.6%
IL-1-β Conc (pg/ml) ([9]; 0.5 μg /ml): 9.6* pg/ml
IL-1-β % decrease with respect to LPS ([9]; 1 μg /ml): 44.6%
IL-1-β Conc (pg/ml) ([9]; 1 μg /ml): 11.4* pg/ml
IL-1-β % decrease with respect to LPS ([9]; 10 μg/ml): 39.0%
IL-1-β Conc (pg/ml) ([9]; 10 μg/ml): 12.6* pg/ml

COc1cccc2c1C(=O)c1c(O)c3c(c(O)c1C2=O)C[C@@](O)(C(=O)CO)C[C@@H]3O[C@H]1C[C@H](N)[C@H](O)[C@H](C)O1 [Doxorubicin, Doxorubicin Hydrochloride, reference compound]
cytotoxicity ([10]; 24 h): up to 48%
cytotoxicity ([10]; 72 h): > 88%
% Increase with respect to untreated (LDH) ([11]; 0.1 μM): −4.78%
LDH Activity (mU/ml) ([11]; 0.1 μM): 60.23 mU/ml
% Increase with respect to untreated (LDH) ([11]; 1 μM): −16.43%
LDH Activity (mU/ml) ([11]; 1 μM): 52.87 mU/ml
% Increase with respect to untreated (LDH) ([11]; 10 μM): ***125.92%
LDH Activity (mU/ml) ([11]; 10 μM): 142.92 mU/ml
cytotoxicity [12]: up to 40%
Green fluorescence intensity (RFU) ([13]; 0.1 μM): 11.5 ± 0.71 RFU
Red fluorescence intensity (RFU) ([13]; 0.1 μM): ^#106.17 ± 15.32 ^ RFU
Red fluorescence intensity/Green fluorescence intensity ([13]; 0.1 μM): 9.23
Green fluorescence intensity (RFU) ([13]; 1 μM): 11.5 ± 0.71 RFU
Red fluorescence intensity (RFU) ([13]; 1 μM): 93.25 ± 22.98 RFU
Red fluorescence intensity/Green fluorescence intensity ([13]; 1 μM): 8.11
Green fluorescence intensity (RFU) ([13]; 10 μM): 9.83 ± 4.48 RFU
Red fluorescence intensity (RFU) ([13]; 10 μM): 49.83 ± 1.65 RFU
Red fluorescence intensity/Green fluorescence intensity ([13]; 10 μM): 5.07
